Patent publication US10550105B2 (Ribon Therapeutics Inc., priority 2018, dated 2020)

System: CT26 colon cancer syngeneic model
Experiment: Inhibition of tumor growth by oral dosing, murine CT26 colon cancer syngeneic model
Type: in vivo
Conditions: CT26 in BALB/c mice; BID 125-500 mg/kg or QD 500 mg/kg for 21 days; vs vehicle, P<0.0001 (FIG. 7B)
Excerpt: Example H: Inhibition of Tumor Growth by Oral Dosing with a PARP7 Inhibitor
The effect of Compound 561 on tumor growth was studied in a human NCI-H1373 lung cancer xenograft and a murine CT26 colon cancer syngeneic model.
For the CT26 study, BALB/c mice were inoculated subcutaneously in the right flank with CT26 cells for tumor development. After 5 days of cell inoculation, mice with 36-79 mm^3 tumors were randomized into treatment groups with mean tumor volumes of 54 mm^3. The treatments were started from the next day post randomization (defined randomization day as day 0) and were treated with vehicle (25 or 50% Labrasol) or Compound 561 BID (2 times a day every 12 hours) at doses ranging from 125-500 mg/kg or QD (once a day) at 500 mg/kg for 21 days by oral gavage or needle subcutaneously. Tumor volumes were determined by manual calipers every 2-3 days. Mean tumor volume and SEM are plotted. BID: twice a day; PO: per oral administration; QD: once a day; SC: per subcutaneous administration. The first two doses for vehicle and Compound 561 500 mg/kg in the QD groups were delivered by subcutaneous injection. […] Statistical significance is calculated using two-way ANOVA followed by Bonferroni post-tests in which the treatment groups were compared to vehicle control (**** P<0.0001).

C[C@@H](COCCC(=O)N1CCN(c2ncc(C(F)(F)F)cn2)CC1)Nc1cn[nH]c(=O)c1C(F)(F)F [Example 561, 5-[[(2S)-1-(3-oxo-3-[4-[5-(trifluoromethyl)pyrimidin-2-yl]piperazin-1-yl]propoxy)propan-2-yl]amino]-4-(trifluoromethyl)-2,3-dihydropyridazin-3-one]
tumor growth: significantly reduces tumor growth
